Measurements taken from ChEMBL document CHEMBL3045916, “Synthesis, characterization, biological evaluation and in silico screening of oxadiazinanones” (Med Chem Res, 2013).
≈ marks a conversion by molar mass, not a printed value.

Legend:
Escherichia coli [1] = assay: Antibacterial activity against Escherichia coli ATCC 25922 assessed as growth inhibition after 24 hr by disk diffusion method; assay type: functional
Staphylococcus aureus [2] = assay: Antibacterial activity against methicillin-resistant Staphylococcus aureus assessed as growth inhibition after 24 hr by disk diffusion method; assay type: functional
Pseudomonas aeruginosa [3] = assay: Antibacterial activity against Pseudomonas aeruginosa ATCC 9029 assessed as growth inhibition after 24 hr by disk diffusion method; assay type: functional
Talaromyces marneffei [4] = assay: Antifungal activity against Talaromyces marneffei assessed as growth inhibition after 48 hr by agar disk diffusion method; assay type: functional
[5] = system: Trichophyton mentagrophytes; assay: Fungicidal activity against Trichophyton mentagrophytes after 48 hr; assay type: functional
Candida albicans [6] = assay: Antifungal activity against Candida albicans ATCC 90028 assessed as growth inhibition after 48 hr by agar disk diffusion method; assay type: functional
Talaromyces marneffei [7] = assay: Antifungal activity against Talaromyces marneffei assessed as growth inhibition after 48 hr by macro-dilution method; assay type: functional
Aspergillus fumigatus [8] = assay: Fungicidal activity against Aspergillus fumigatus after 48 hr; assay type: functional
Candida albicans [9] = assay: Antifungal activity against Candida albicans ATCC 90028 assessed as growth inhibition after 48 hr by macro-dilution method; assay type: functional; details: ATCC 90028, 48 h
Aspergillus fumigatus [10] = assay: Antifungal activity against Aspergillus fumigatus assessed as growth inhibition after 48 hr by agar disk diffusion method; assay type: functional
[11] = system: Trichophyton mentagrophytes; assay: Antifungal activity against Trichophyton mentagrophytes assessed as growth inhibition after 48 hr by macro-dilution method; assay type: functional
Talaromyces marneffei [12] = assay: Fungicidal activity against Talaromyces marneffei after 48 hr; assay type: functional
[13] = system: Trichophyton mentagrophytes; assay: Antifungal activity against Trichophyton mentagrophytes assessed as growth inhibition after 48 hr by agar disk diffusion method; assay type: functional
Aspergillus fumigatus [14] = assay: Antifungal activity against Aspergillus fumigatus assessed as growth inhibition after 48 hr by macro-dilution method; assay type: functional
Candida albicans [15] = assay: Fungicidal activity against Candida albicans ATCC 90028 after 48 hr; assay type: functional; details: ATCC 90028, 48 h
[16] = system: Radical scavenging activity; assay: Antioxidant activity assessed as DPPH radical scavenging activity after 30 min by spectrophotometric analysis; assay type: functional
[17] = system: Radical scavenging activity; assay: Antioxidant activity assessed as DPPH radical scavenging activity at 6 ug/mL after 30 min by spectrophotometric analysis relative to control; assay type: functional
[18] = system: Radical scavenging activity; assay: Antioxidant activity assessed as DPPH radical scavenging activity at 8 ug/mL after 30 min by spectrophotometric analysis relative to control; assay type: functional
[19] = system: Radical scavenging activity; assay: Antioxidant activity assessed as DPPH radical scavenging activity at 2 ug/mL after 30 min by spectrophotometric analysis relative to control; assay type: functional
[20] = system: Radical scavenging activity; assay: Antioxidant activity assessed as DPPH radical scavenging activity at 10 ug/mL after 30 min by spectrophotometric analysis relative to control; assay type: functional
[21] = system: Radical scavenging activity; assay: Antioxidant activity assessed as DPPH radical scavenging activity at 4 ug/mL after 30 min by spectrophotometric analysis relative to control; assay type: functional
Streptococcus pyogenes [22] = assay: Bactericidal activity against Streptococcus pyogenes clinical isolate after 18 to 24 hr; assay type: functional
Staphylococcus aureus [23] = assay: Antibacterial activity against methicillin-resistant Staphylococcus aureus assessed as growth inhibition after 24 hr by macro-dilution method; assay type: functional
Pseudomonas aeruginosa [24] = assay: Bactericidal activity against Pseudomonas aeruginosa ATCC 9029 after 18 to 24 hr; assay type: functional
Klebsiella pneumoniae [25] = assay: Antibacterial activity against Klebsiella pneumoniae clinical isolate assessed as growth inhibition after 24 hr by disk diffusion method; assay type: functional
Staphylococcus aureus [26] = assay: Bactericidal activity against methicillin-resistant Staphylococcus aureus after 18 to 24 hr; assay type: functional
Escherichia coli [27] = assay: Antibacterial activity against Escherichia coli ATCC 8739 assessed as growth inhibition after 24 hr by macro-dilution method; details: ATCC 8739, 24 h
Escherichia coli [28] = assay: Bactericidal activity against Escherichia coli ATCC 25922 after 18 to 24 hr; assay type: functional
Pseudomonas aeruginosa [29] = assay: Antibacterial activity against Pseudomonas aeruginosa ATCC 9029 assessed as growth inhibition after 24 hr by macro-dilution method; assay type: functional; details: ATCC 9029, 24 h
Klebsiella pneumoniae [30] = assay: Bactericidal activity against Klebsiella pneumoniae clinical isolate after 18 to 24 hr; assay type: functional
Streptococcus pyogenes [31] = assay: Antibacterial activity against Streptococcus pyogenes clinical isolate assessed as growth inhibition after 24 hr by disk diffusion method; assay type: functional
Klebsiella pneumoniae [32] = assay: Antibacterial activity against Klebsiella pneumoniae clinical isolate assessed as growth inhibition after 24 hr by macro-dilution method; assay type: functional
Streptococcus pyogenes [33] = assay: Antibacterial activity against Streptococcus pyogenes clinical isolate assessed as growth inhibition after 24 hr by macro-dilution method; assay type: functional

Compound | diameter of the inhibition zone (DIZ) (Escherichia coli [1]) [mm] | diameter of the inhibition zone (DIZ) (Staphylococcus aureus [2]) [mm] | diameter of the inhibition zone (DIZ) (Pseudomonas aeruginosa [3]) [mm] | diameter of the inhibition zone (DIZ) (Talaromyces marneffei [4]) [mm] | MFC [5] [µg/mL] | diameter of the inhibition zone (DIZ) (Candida albicans [6]) [mm] | MIC (Talaromyces marneffei [7]) [µg/mL] | MFC (Aspergillus fumigatus [8]) [µg/mL] | MIC (Candida albicans [9]) [µg/mL] | diameter of the inhibition zone (DIZ) (Aspergillus fumigatus [10]) [mm] | MIC [11] [µg/mL] | MFC (Talaromyces marneffei [12]) [µg/mL] | diameter of the inhibition zone (DIZ) [13] [mm] | MIC (Aspergillus fumigatus [14]) [µg/mL] | MFC (Candida albicans [15]) [µg/mL] | IC50 [16] [µg/mL] | Activity [17] [%] | Activity [18] [%] | Activity [19] [%] | Activity [20] [%] | also measured
O=C(O)c1cn(C2CC2)c2cc(N3CCNCC3)c(F)cc2c1=O [CIPROFLOXACIN] | 27.5 | 21 | 31.5 |  |  |  |  |  |  |  |  |  |  |  |  |  |  |  |  |  | 
C[C@@H]1[C@H](O)[C@@H](C)/C=C/C=C/C=C/C=C/C=C/C=C/C=C/[C@H](O[C@@H]2O[C@H](C)[C@@H](O)[C@H](N)[C@@H]2O)C[C@@H]2O[C@](O)(C[C@@H](O)C[C@@H](O)[C@H](O)CC[C@@H](O)C[C@@H](O)CC(=O)O[C@H]1C)C[C@H](O)[C@H]2C(=O)O [AMPHOTERICIN B] |  |  |  | 21.5 | 25 (≈ 27.1 µM) | 30.5 | 12.5 (≈ 13.5 µM) | 25 (≈ 27.1 µM) | 6.25 (≈ 6.76 µM) | 26.5 | 6.25 (≈ 6.76 µM) | 25 (≈ 27.1 µM) | 23.5 | 12.5 (≈ 13.5 µM) | 25 (≈ 27.1 µM) |  |  |  |  |  | 
O=C1O[C@H]([C@@H](O)CO)C(O)=C1O [ASCORBIC ACID] |  |  |  |  |  |  |  |  |  |  |  |  |  |  |  | 4.45 (≈ 25.3 µM) | 53.4 | 69.3 | 18.4 | 87 | Activity [21]: 34.9%
CC1(c2ccc(O)cc2)NNC(=O)CO1 (centres undefined) | 18.4 | 18.3 | 24.4 | 15.1 | 50 (≈ 240 µM) | 22.4 | 50 (≈ 240 µM) | 100 (≈ 480 µM) | 25 (≈ 120 µM) | 19.4 | 25 (≈ 120 µM) | 100 (≈ 480 µM) | 16.3 | 50 (≈ 240 µM) | 100 (≈ 480 µM) | 8.02 (≈ 38.5 µM) | 37.2 | 49 | 11.9 | 62.4 | MBC (Streptococcus pyogenes [22]): 50 µg/mL (≈ 240 µM); MIC (Staphylococcus aureus [23]): 25 µg/mL (≈ 120 µM); MBC (Pseudomonas aeruginosa [24]): 100 µg/mL (≈ 480 µM); diameter of the inhibition zone (DIZ) (Klebsiella pneumoniae [25]): 14.6 mm; MBC (Staphylococcus aureus [26]): 50 µg/mL (≈ 240 µM); MIC (Escherichia coli [27]): 50 µg/mL (≈ 240 µM); MBC (Escherichia coli [28]): 100 µg/mL (≈ 480 µM); MIC (Pseudomonas aeruginosa [29]): 25 µg/mL (≈ 120 µM); MBC (Klebsiella pneumoniae [30]): 50 µg/mL (≈ 240 µM); diameter of the inhibition zone (DIZ) (Streptococcus pyogenes [31]): 19.3 mm; MIC (Klebsiella pneumoniae [32]): 25 µg/mL (≈ 120 µM); Activity [21]: 25.1%; MIC (Streptococcus pyogenes [33]): 25 µg/mL (≈ 120 µM)
